Data taken from PubChem BioAssay (NCI).
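Growth conditions: 96-well plates. Treatment: test compound, 48 hours, 5 concentrations. Analysis: linear interpolation between bracketing concentrations; unreached endpoints set to highest concentration. At the TGI there is no net growth.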

Experiments:
Assay in all cases: inhibition of tumour cell growth, NCI panel, 48 h
OVCAR-5 ovarian = system: OVCAR-5 ovarian
CAKI-1 renal = system: CAKI-1 renal
MDA-N = system: MDA-N
UACC-257 melanoma = system: UACC-257 melanoma
SW-620 colon = system: SW-620 colon
HT29 colon = system: HT29 colon
SNB-19 CNS = system: SNB-19 CNS
SF-539 CNS = system: SF-539 CNS
NCI-H522 lung = system: NCI-H522 lung
UO-31 renal = system: UO-31 renal
SF-268 CNS = system: SF-268 CNS
LOX IMVI melanoma = system: LOX IMVI melanoma
CCRF-CEM leukemia = system: CCRF-CEM leukemia
ACHN renal = system: ACHN renal
NCI-H460 lung = system: NCI-H460 lung
HOP-92 NSCLC = system: HOP-92 NSCLC
HOP-62 NSCLC = system: HOP-62 NSCLC
A549 NSCLC = system: A549 NSCLC
RPMI-8226 leukemia = system: RPMI-8226 leukemia
NCI-H226 lung = system: NCI-H226 lung
U251 CNS = system: U251 CNS
OVCAR-4 ovarian = system: OVCAR-4 ovarian
OVCAR-3 ovarian = system: OVCAR-3 ovarian
SK-OV-3 ovarian = system: SK-OV-3 ovarian
BT-549 breast = system: BT-549 breast
COLO 205 colon = system: COLO 205 colon
IGROV1 ovarian = system: IGROV1 ovarian
HS 578T breast = system: HS 578T breast
SR leukemia = system: SR leukemia
NCI/ADR-RES ovarian = system: NCI/ADR-RES ovarian
HCT-15 colon = system: HCT-15 colon
UACC-62 melanoma = system: UACC-62 melanoma
K-562 leukemia = system: K-562 leukemia
HCT-116 colon = system: HCT-116 colon
SN12C renal = system: SN12C renal
M14 melanoma = system: M14 melanoma
MDA-MB-435 = system: MDA-MB-435
MALME-3M melanoma = system: MALME-3M melanoma
MDA-MB-231 breast = system: MDA-MB-231 breast
SF-295 CNS = system: SF-295 CNS
A498 renal = system: A498 renal
OVCAR-8 ovarian = system: OVCAR-8 ovarian
HL-60(TB) leukemia = system: HL-60(TB) leukemia
786-0 renal = system: 786-0 renal
TK-10 renal = system: TK-10 renal
MCF7 breast = system: MCF7 breast
HCC-2998 colon = system: HCC-2998 colon
KM12 colon = system: KM12 colon
EKVX NSCLC = system: EKVX NSCLC
SK-MEL-2 melanoma = system: SK-MEL-2 melanoma
PC-3 prostate = system: PC-3 prostate
SK-MEL-28 melanoma = system: SK-MEL-28 melanoma
SK-MEL-5 melanoma = system: SK-MEL-5 melanoma
NCI-H23 lung = system: NCI-H23 lung

Q: What does the source list for NC(=O)SCC(=O)Nc1ccc2ncccc2c1?
A: TGI (OVCAR-5 ovarian): > 100 µM; TGI (CAKI-1 renal): > 100 µM; TGI (MDA-N): > 100 µM; TGI (UACC-257 melanoma): > 100 µM; TGI (SW-620 colon): > 100 µM; TGI (HT29 colon): > 100 µM; TGI (SNB-19 CNS): > 100 µM; TGI (SF-539 CNS): > 100 µM; TGI (NCI-H522 lung): 69.3 µM; TGI (UO-31 renal): > 100 µM; TGI (SF-268 CNS): > 100 µM; TGI (LOX IMVI melanoma): > 100 µM; TGI (CCRF-CEM leukemia): > 100 µM; TGI (ACHN renal): > 100 µM; TGI (NCI-H460 lung): > 100 µM; TGI (HOP-92 NSCLC): > 100 µM; TGI (HOP-62 NSCLC): > 100 µM; TGI (A549 NSCLC): > 100 µM; TGI (RPMI-8226 leukemia): 76.9 µM; TGI (NCI-H226 lung): > 100 µM; TGI (U251 CNS): 48.7 µM; TGI (OVCAR-4 ovarian): > 100 µM; TGI (OVCAR-3 ovarian): > 100 µM; TGI (SK-OV-3 ovarian): > 100 µM; TGI (BT-549 breast): > 100 µM; TGI (COLO 205 colon): > 100 µM; TGI (IGROV1 ovarian): > 100 µM; TGI (HS 578T breast): > 100 µM; TGI (SR leukemia): > 100 µM; TGI (NCI/ADR-RES ovarian): > 100 µM; TGI (HCT-15 colon): > 100 µM; TGI (UACC-62 melanoma): > 100 µM; TGI (K-562 leukemia): > 100 µM; TGI (HCT-116 colon): > 100 µM; TGI (SN12C renal): > 100 µM; TGI (M14 melanoma): > 100 µM; TGI (MDA-MB-435): > 100 µM; TGI (MALME-3M melanoma): > 100 µM; TGI (MDA-MB-231 breast): > 100 µM; TGI (SF-295 CNS): > 100 µM; TGI (A498 renal): > 100 µM; TGI (OVCAR-8 ovarian): > 100 µM; TGI (HL-60(TB) leukemia): > 100 µM; TGI (786-0 renal): 67.6 µM; TGI (TK-10 renal): > 100 µM; TGI (MCF7 breast): > 100 µM; TGI (HCC-2998 colon): > 100 µM; TGI (KM12 colon): > 100 µM; TGI (EKVX NSCLC): > 100 µM; TGI (SK-MEL-2 melanoma): > 100 µM; TGI (PC-3 prostate): > 100 µM; TGI (SK-MEL-28 melanoma): > 100 µM; TGI (SK-MEL-5 melanoma): > 100 µM; TGI (NCI-H23 lung): > 100 µM
